In US20250186442A1, “Obicetrapib and Ezetimibe Combination Treatment and Fixed Dose Pharmaceutical Compositions” (NewAmsterdam Pharma B.V., priority 2022, published 2025):

Tests used:
[1] = system: LDL-C; assay: ROSE2 phase 2b clinical trial - LDL-C; assay type: in vivo, human; conditions: for LDL-C Change from Baseline to Day 28, Mean / LDL-C Change from Baseline to Day 28, Median / LDL-C Change from Baseline to Day 84, Mean / LDL-C Change from Baseline to Day 84, Median / LDL-C Day 28, Mean / LDL-C Day 28, Median / LDL-C Day 84, Mean / LDL-C Day 84, Median / LDL-C Percent Change from Baseline to Day 28 (%), Mean / LDL-C Percent Change from Baseline to Day 28 (%), Median / LDL-C Percent Change from Baseline to Day 84 (%), Mean / LDL-C Percent Change from Baseline to Day 84 (%), Median: obicetrapib 10 mg, ezetimibe 10 mg
Procedure: The primary objective of this study is to evaluate the effect of obicetrapib 10 mg+ezetimibe 10 mg combination therapy compared with placebo, when used as an adjunct to high-intensity statin therapy, on LDL-C at Day 84.
(§1) The secondary objectives of this study include the following, in hierarchical order: • To evaluate the effect of obicetrapib 10 mg monotherapy compared with placebo, when used as an adjunct to high-intensity statin therapy, on LDL-C at Day 84; • To evaluate the effect of obicetrapib 10 mg+ezetimibe 10 mg combination therapy compared with placebo, when used as an adjunct to high-intensity statin therapy, on ApoB at Day 84; and • To evaluate the effect of obicetrapib 10 mg monotherapy compared with placebo, when used as an adjunct to high-intensity statin therapy, on ApoB at Day 84.
(§2) This study will be a placebo-controlled, double-blind, randomized, Phase 2 study to evaluate the efficacy, safety, and tolerability of obicetrapib 10 mg, both in combination with ezetimibe 10 mg and as monotherapy, as an adjunct to high-intensity statin therapy. This study will take place at approximately 20 sites in the United States.
(§3) Up to 2 weeks after the Screening Visit, participants will return to the site on Day 1 (Visit 2) and confirm study eligibility before being randomized and beginning treatment. Approximately 114 eligible participants (38 participants per treatment group) will be randomized in a 1:1:1 ratio to 1 of the following treatment groups: • Combination therapy: Obicetrapib 10 mg+ezetimibe 10 mg (administered as one 10 mg obicetrapib tablet and one 10 mg ezetimibe capsule); • Obicetrapib monotherapy: Obicetrapib 10 mg (administered as one 10 mg obicetrapib tablet and 1 placebo capsule); or • Placebo (administered as 1 placebo tablet and 1 placebo capsule).
During the 12-week Treatment Period, the assigned study drugs will be administered by the participants orally with water, once daily on Day 1 to Day 84 at approximately the same time each morning. Participants will return to the site on Day 28 (+2 days), Day 84 (+2 days), and Day 112 (+2 days) for efficacy, safety, and pharmacokinetic (PK) assessments. Participants, Investigators, the Clinical Research Organization (CRO), and the Sponsor will be blinded to all lipid results from Day 1 (Visit 2) for the first participant until all enrolled participants complete the Day 84 (End of Treatment) visit or are withdrawn from the study, in order to protect blinding to treatment assignment.
The primary efficacy endpoint is the percent change from Day 1 to Day 84 in LDL-C for the obicetrapib 10 mg+ezetimibe 10 mg combination treatment group compared with the placebo group.
(§4) The secondary efficacy endpoints include the following, in hierarchical order: • Percent change from Day 1 to Day 84 in LDL-C for the obicetrapib 10 mg monotherapy • treatment group compared with the placebo group; • Percent change from Day 1 to Day 84 in ApoB for the obicetrapib 10 mg+ezetimibe 10 mg • combination treatment group compared with the placebo group; and • Percent change from Day 1 to Day 84 in ApoB for the obicetrapib 10 mg monotherapy treatment group compared with the placebo group.
The exploratory efficacy endpoints include the following: • Percent change from Day 1 to Day 84 in non-HDL-C, VLDL-C, HDL-C, TG, ApoE, Lp(a), and HDL-ApoE for the obicetrapib 10 mg+ezetimibe 10 mg combination treatment group compared with the placebo group and for the obicetrapib 10 mg monotherapy treatment group compared with the placebo group; and • Proportion of participants at Day 84 that achieve LDL-C<2.6 mmol/L (<100 mg/dL), LDL-C<1.8 mmol/L (<70 mg/dL), and LDL-C<1.3 mmol/L (<50 mg/dL) for the obicetrapib 10 mg+ezetimibe 10 mg combination treatment group compared with the placebo group and for the obicetrapib 10 mg monotherapy treatment group compared with the placebo group. […]

[2] = system: ApoB; assay: ROSE2 phase 2b clinical trial - ApoB; assay type: in vivo, human; conditions: obicetrapib 10 mg, ezetimibe 10 mg
Procedure: as §1, §2, §3, §4
Blood samples for the lipid profile must be obtained under fasting conditions (ie, after the participant has fasted for approximately 10 hours). For the purposes of this study, fasting will be defined as nothing by mouth except water and any essential medications. If a participant is not fasting, the Investigator should reschedule the visit as soon as possible. LDL-C level will be calculated using the Friedewald equation unless TG≥400 mg/dL or LDL-C≤50 mg/dL; in both cases, LDL-C level will be measured directly by preparative ultracentrifugation, also referred to as beta quantification. Additionally, LDL-C will be measured by preparative ultracentrifugation, also referred to as beta quantification, at baseline (Visit 2) and at the end of the 12-week Treatment Period (Visit 4) for all participants.
The Modified ITT (mITT) Population will include all participants in the ITT Population who receive at least 1 dose of any study drug and have a baseline value for the LDL-C assessment. Any efficacy measurement obtained during the Safety Follow-up Visit (Visit 5) after a participant permanently discontinues the study drug or after a participant receives an excluded medication and/or procedure will be removed from the mITT analysis. Treatment classification will be based on the randomized treatment. The mITT Population will be used for the primary analysis of all efficacy endpoints.

[3] = patients; daily dosing of 10 mg for 12 weeks, alone and with 2 different statins; cited from earlier work

SMILES: CCOC(=O)N1c2ccc(C(F)(F)F)cc2[C@@H](N(Cc2cc(C(F)(F)F)cc(C(F)(F)F)c2)c2ncc(OCCCC(=O)O)cn2)C[C@H]1CC [Obicetrapib, {4-[(2-{[3,5-bis(trifluoromethyl)benzyl][(2R,4S)-1-(ethoxycarbonyl)-2-ethyl-6-(trifluoromethyl)-1,2,3,4-tetrahydroquinolin-4-yl]amino}pyrimidin-5-yl)oxy]butanoic acid}]
- LDL-C Change from Baseline to Day 28, Mean ([1]; Exploratory Population): -43.0 mg/dL
- LDL-C Change from Baseline to Day 28, Median ([1]; Exploratory Population): -45.0 mg/dL
- LDL-C Change from Baseline to Day 84, Mean ([1]; Exploratory Population): -39.9 mg/dL
- LDL-C Change from Baseline to Day 84, Median ([1]; Exploratory Population): -38.5 mg/dL
- LDL-C Day 28, Mean ([1]; Exploratory Population): 57.6 mg/dL
- LDL-C Day 28, Median ([1]; Exploratory Population): 51.5 mg/dL
- LDL-C Day 84, Mean ([1]; Exploratory Population): 60.7 mg/dL
- LDL-C Day 84, Median ([1]; Exploratory Population): 55.5 mg/dL
- LDL-C Percent Change from Baseline to Day 28 (%), Mean ([1]; Exploratory Population): −43.59%
- LDL-C Percent Change from Baseline to Day 28 (%), Median ([1]; Exploratory Population): −43.90%
- LDL-C Percent Change from Baseline to Day 84 (%), Mean ([1]; Exploratory Population): −39.35%
- LDL-C Percent Change from Baseline to Day 84 (%), Median ([1]; Exploratory Population): −43.50%
- median reduction in LDL-C ([1]; ROSE2 phase 2b (NCT05266586), obicetrapib 10 mg with or without ezetimibe 10 mg): 39%
- LDL-C Change from Baseline to Day 28, Mean ([1]; mITT Population): -33.2 mg/dL
- LDL-C Change from Baseline to Day 28, Median ([1]; mITT Population): -35.0 mg/dL
- LDL-C Change from Baseline to Day 84, Mean ([1]; mITT Population): -21.3 mg/dL
- LDL-C Change from Baseline to Day 84, Median ([1]; mITT Population): -29.5 mg/dL
- LDL-C Day 28, Mean ([1]; mITT Population): 70.3 mg/dL
- LDL-C Day 28, Median ([1]; mITT Population): 56.0 mg/dL
- LDL-C Day 84, Mean ([1]; mITT Population): 82.7 mg/dL
- LDL-C Day 84, Median ([1]; mITT Population): 65.0 mg/dL
- LDL-C Percent Change from Baseline to Day 28 (%), Mean ([1]; mITT Population): −32.21%
- LDL-C Percent Change from Baseline to Day 28 (%), Median ([1]; mITT Population): −41.70%
- LDL-C Percent Change from Baseline to Day 84 (%), Mean ([1]; mITT Population): −18.92%
- LDL-C Percent Change from Baseline to Day 84 (%), Median ([1]; mITT Population): −32.35%
- ApoB Change from Baseline to Day 28, Mean ([2]; Exploratory Population): -24.2 mg/dL
- ApoB Change from Baseline to Day 28, Median ([2]; Exploratory Population): -23.0 mg/dL
- ApoB Change from Baseline to Day 84, Mean ([2]; Exploratory Population): -20.5 mg/dL
- ApoB Change from Baseline to Day 84, Median ([2]; Exploratory Population): -21.5 mg/dL
- ApoB Day 28, Mean ([2]; Exploratory Population): 65.4 mg/dL
- ApoB Day 28, Median ([2]; Exploratory Population): 64.5 mg/dL
- ApoB Day 84, Mean ([2]; Exploratory Population): 69.1 mg/dL
- ApoB Day 84, Median ([2]; Exploratory Population): 65.0 mg/dL
- ApoB Percent Change from Baseline to Day 28 (%), Mean ([2]; Exploratory Population): −26.00%
- ApoB Percent Change from Baseline to Day 28 (%), Median ([2]; Exploratory Population): −26.00%
- ApoB Percent Change from Baseline to Day 84 (%), Mean ([2]; Exploratory Population): −21.73%
- ApoB Percent Change from Baseline to Day 84 (%), Median ([2]; Exploratory Population): −24.20%
- ApoB Change from Baseline to Day 28, Mean ([2]; mITT Population): -18.9 mg/dL
- ApoB Change from Baseline to Day 28, Median ([2]; mITT Population): -20.0 mg/dL
- ApoB Change from Baseline to Day 84, Mean ([2]; mITT Population): -10.4 mg/dL
- ApoB Change from Baseline to Day 84, Median ([2]; mITT Population): -14.5 mg/dL
- ApoB Day 28, Mean ([2]; mITT Population): 73.4 mg/dL
- ApoB Day 28, Median ([2]; mITT Population): 66.0 mg/dL
- ApoB Day 84, Mean ([2]; mITT Population): 82.4 mg/dL
- ApoB Day 84, Median ([2]; mITT Population): 72.0 mg/dL
- ApoB Percent Change from Baseline to Day 28 (%), Mean ([2]; mITT Population): −19.16%
- ApoB Percent Change from Baseline to Day 28 (%), Median ([2]; mITT Population): −23.10%
- ApoB Percent Change from Baseline to Day 84 (%), Mean ([2]; mITT Population): −9.50%
- ApoB Percent Change from Baseline to Day 84 (%), Median ([2]; mITT Population): −17.35%
- tolerability [3]: well tolerated
